Converted amounts (≈) assume the structure as drawn.

The values that follow come from ChEMBL document CHEMBL3351963 (Bioorg Med Chem Lett, 2014).

Series [1] can be described thus: Stability in pH 7.4 buffer solution. The class given is physicochemical.
Series [2] is described as follows: Retention time of the compound by HPLC method. The class given is physicochemical.
Series [3] can be described thus: Stability in rat liver S9 fraction at 100 uM after 24 hrs in presence of 1 mM reduced glutathione at 37 degC by HPLC method. In kind it is ADME, subcellular. The settings on record: s9, 24 h.
For series [4], the target named is Glutathione S-transferase P (Homo sapiens, UniProt P09211). Description: Prodrug conversion assessed as half life for human recombinant GST-P1-mediated metformin formation at 100 uM in presence of 1 mM reduced glutathione by HPLC method. In kind it is ADME. The settings on record: gsh.
In the next series the test system is Intestine. Description: Stability in rat small intestine homogenates by HPLC method. In kind it is ADME, tissue-based. The following applies: tissue homogenate.
A further series concerns Liver microsome. Description: Prodrug conversion in rat liver microsomes assessed as half life for metformin formation at 100 uM in presence of a NADPH-regenerating system by HPLC method. The class given is ADME. Background: Microsomes from liver hold many membrane-bound enzymes, among them those of drug oxidation.
The nature of series [5]: Prodrug conversion in rat liver S9 fraction assessed as […] GST-mediated metformin formation at 10 to 200 uM in presence of 1 mM reduced glutathione by Michaelis-Menten method. In kind it is ADME, subcellular. The settings on record: s9, 200 µM.
The nature of series [6]: Stability in presence of 1 mM reduced glutathione at 100 uM after 24 hrs at 37 degC by HPLC method. In kind it is physicochemical.
The nature of series [7]: Aqueous solubility in pure water incubated for 1 hr by HPLC based shake flask method. The class given is physicochemical.
In series [8] the target is T1, Glutathione S-transferase A1 (Homo sapiens, UniProt P08263).
T1 sequence (P08263 whole entry): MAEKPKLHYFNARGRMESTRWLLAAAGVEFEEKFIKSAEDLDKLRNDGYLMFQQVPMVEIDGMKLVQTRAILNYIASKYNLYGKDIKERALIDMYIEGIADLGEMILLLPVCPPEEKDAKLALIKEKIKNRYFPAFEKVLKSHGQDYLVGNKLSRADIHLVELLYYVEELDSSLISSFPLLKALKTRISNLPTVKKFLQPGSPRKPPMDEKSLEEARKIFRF
Briefly: Prodrug conversion assessed as half life for human recombinant GST-A1-mediated metformin formation at 100 uM in presence of 1 mM reduced glutathione by HPLC method. The class given is ADME. The settings on record: gsh.

A short description of series [9]: Stability in rat liver S9 fraction at 100 uM after 24 hrs in absence of 1 mM reduced glutathione at 37 degC by HPLC method. The class given is ADME. The settings on record: s9, 24 h.
Series [10] can be described thus: Prodrug conversion in human liver S9 fraction assessed as half life for metformin formation at 100 uM in presence of 1 mM reduced glutathione by HPLC method. The following applies: gsh. In kind it is ADME, subcellular.
The subject of a further series is Liver cytosol. Briefly: Prodrug conversion in rat liver cytosol assessed as half life for metformin formation at 100 uM in presence of a NADPH-regenerating system by HPLC method. In kind it is ADME, tissue-based.
The target of series [11] is T2, Glutathione S-transferase Mu 2 (Homo sapiens, UniProt P28161).
T2 sequence (P28161 whole entry): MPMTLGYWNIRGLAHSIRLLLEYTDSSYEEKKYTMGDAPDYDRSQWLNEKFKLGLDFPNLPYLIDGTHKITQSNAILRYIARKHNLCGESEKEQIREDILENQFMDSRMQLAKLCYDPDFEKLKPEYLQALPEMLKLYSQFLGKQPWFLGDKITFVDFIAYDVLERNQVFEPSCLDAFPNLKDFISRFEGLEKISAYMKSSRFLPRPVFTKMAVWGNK
Briefly: Prodrug conversion assessed as half life for human recombinant GST-M2-mediated metformin formation at 100 uM in presence of 1 mM reduced glutathione by HPLC method. In kind it is ADME. The settings on record: gsh.

Series [12] in a line: Stability in pH 1.0 HCl buffer solution measured over 3 weeks by HPLC method. In kind it is physicochemical. The following applies: pH 1, 504 h.
Series [13] in a line: Prodrug conversion in rat liver S9 fraction assessed as half life for metformin formation at 100 uM in presence of 1 mM reduced glutathione by HPLC method. The following applies: gsh. The class given is ADME, subcellular.
Series [14] is described as follows: Distribution coefficient, logD of the compound in mixture of 1-octanol and 50 mM phosphate buffer pH 7.4 by HPLC method. In kind it is physicochemical. The settings on record: 1-octanol/50 mM phosphate buffer.

Glutathione S-transferase P, sequence (P09211 whole entry): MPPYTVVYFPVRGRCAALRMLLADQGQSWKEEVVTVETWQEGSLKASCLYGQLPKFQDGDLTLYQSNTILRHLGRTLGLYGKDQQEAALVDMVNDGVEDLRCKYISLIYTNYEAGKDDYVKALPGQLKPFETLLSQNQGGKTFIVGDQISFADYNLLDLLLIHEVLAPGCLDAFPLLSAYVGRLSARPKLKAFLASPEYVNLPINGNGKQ

Take `CN(C)C(=N)/N=C(\N)NS(=O)(=O)c1ccccc1[N+](=O)[O-]`: the Stability result in series [1] and in [3] was “Stable” each time. In series [2], this molecule gave a Retention_time of 3 min.

Regarding `CN(C)C(=N)/N=C(\N)NS(=O)(=O)c1ccc(C(F)(F)F)cc1[N+](=O)[O-]`, the t1/2 in series [4] is given as 412.05 min; in the series on Liver microsome, 568.51 min; in series [8], 380.2 min; in series [10], 362.29 min; in the series on Liver cytosol, 279.85 min; in [11], 366.27 min. Besides, the t1/2 in series [13] was found to be 226.01 min. In addition, the Stability entry (in the series with Intestine; in series [6]; in series [1]; in [9]; in series [12]) was “Stable” in each case. The Km in series [5] is 106 µM. In addition, the maximum rate (Vmax) in series [5] is given as 8.86 nmol/mg/min. The same molecule yielded a solubility (thermodynamic) at 1 h in [7] of 360 µg/mL (≈ 942 µM). Moreover, in series [2], the Retention_time is recorded as 3 min. For the same molecule, the log distribution coefficient (logD) in series [14] amounted to 0.86.

The molecule `CN(C)C(=N)N=C(N)N` [METFORMIN] had a Retention_time in [2] of 15 min.

Regarding `CCC[C@@]1(CCc2ccccc2)CC(O)=C([C@H](CC)c2cccc(NS(=O)(=O)c3ccc(C#N)cn3)c2)C(=O)O1`, in [5], the Km was found to be 143 µM and the maximal velocity (Vmax) turned out to be 13.9 nmol/mg/min.

For `CN(C)C(=N)/N=C(\N)NS(=O)(=O)c1ccc([N+](=O)[O-])cc1`, the Stability result in series [1] and in [3] was “Stable” throughout. Moreover, in [2], the Retention_time is 3 min.

The term Km denotes the concentration of substrate that gives half-maximal velocity. As usually defined, the Vmax is the top rate of the reaction or transport when substrate is in excess. What is called thermodynamic solubility is the concentration in solution at equilibrium with solid. By logD is commonly meant the decadic logarithm of the distribution of all forms, ionised or not, between an organic phase and buffer at a given pH.
